Series [1] relates to lung cancer cell lines (A549, H1299, H460, H23, and H196). The series can be described thus: Combination experiments with chemotherapy. The format is cell-based.
The subject of series [2] is A549 cells. The series can be described thus: Cell cycle analysis by flow cytometry. It is filed as cell-based, human. Conditions: 0, 2, 4, and 6 μM, dose-dependent. On the procedure: A549 and H1299 cells were plated at 1 × 10^5 cells per well of a 6-well plate. Cell cycle was carried out as previously described (Vesuna et al, [2012]). Briefly, cells were trypsinized 24 h after plating and fixed in 70% ethanol overnight at −20°C. Fixed cells were washed with PBS and resuspended in DNA-staining solution (5 μg/ml propidium iodide, 0.5 mg/ml RNase A) for 1 h at room temperature. Cell cycle acquisition was performed on a FACScan I or FACSCalibur instrument (BD Biosciences, San Jose, CA, USA). Independent experiments were repeated three times. Data were analyzed using FlowJo software (Tree Star Inc., Ashland, OR, USA).
In general terms: In flow cytometry, cells or beads pass a laser one at a time.

Series [3] deals with H1299 cells. Nature of the series: qRT-PCR of TCF-regulated genes. The format is cell-based. From the text: RNA was extracted according to the manufacturer's instructions (Qiagen, Valencia, CA, USA), and cDNA was manufactured using qScript cDNA synthesis kit (Quanta BioSciences, Gaithersburg, MD, USA), followed by qPCR using SYBR green (Quanta BioSciences) on an iCycler5 (Bio-Rad, Hercules, CA, USA). Amplification of 36B4, a housekeeping gene, was used for normalizing gene expression values.
On the technique in general: Real-time PCR tracks product formation cycle by cycle.

On the set-up of series [4]: species or system SCID mice. Conditions: mouse, in vivo. On the procedure: Figure 5 Toxicity studies of RK-33 in mice • Following injection of 20 mg/kg of RK-33, twice a week for 7 weeks, extensive histopathological examination was carried out following necropsy. Identical patterns were observed both in the control and in the treated mice (n = 2). Samples were stained with H&E. Scale bar is 50 μm. • Pharmacokinetics of RK-33 in SCID mice at various time intervals. Results are mean ± SD from 5 mice. LC-MS/MS method was used to determine concentration of RK-33 in mouse plasma and tissue. • Liquid chromatography–mass spectrometry (LC-MS/MS) analysis was performed to determine different metabolites of RK-33. • RK-33 and metabolites characterized by LC-MS/MS in human liver microsomes using the scan mode function of the LC-MS/MS. • HAPI cells were treated with RK-33 (10 μM), HA14-1 (25 μM), or DMSO vehicle, followed by oligomycin (oligo, 0.5 μg/ml), FCCP (3 μM), and antimycin A (AA, 1 μM) while oxygen consumption rate (OCR) was measured. Pyruvate (10 mM) was added in combination with FCCP to ensure that substrate supply was not rate-limiting for maximal OCR. Data are mean ± SD from 2 to 3 wells and representative of independent experiments performed with two different HAPI passages. […] Significance was assessed by two-sided, unpaired t-test. […]

Series [5] concerns H1299.EJ cells. Nature of the series: Non-homologous end-joining reporter assay. It is filed as cell-based. Particulars: 4–6 μM. On the procedure:
NHEJ was assessed by the functional reporter system H1299-EJ, provided by E Dikomey. […] When these sites are incised by I-SceI, the artificial start codon is removed creating a DSB. Repair of this DSB by NHEJ restores GFP expression, so that cells capable for NHEJ can be identified by their GFP fluorescence intensity (Kriegs et al, [2010]). H1299.EJ cells were plated in a 6-well plate (1 × 10^5 cell/well) and treated with 4–6 μM RK-33. The following day, cells were transfected (in duplicates) with 1–2 μg of pSceI or pEGFP construct using TransIT-LT1 (Mirus, Madison, WI, USA) in serum-free media (Opti-MEM, Invitrogen, Carlsbad, CA, USA). Media was replaced after 4–6 h with complete media. Subsequently, cells were harvested by trypsinization, washed in PBS, and resuspended in 0.5 ml PBS. NHEJ activity was measured on a FACScan I instrument and analyzed on FlowJo software. Recombination frequency was calculated as ((% pSceI − % negative control) / % pEGFP). H1299-DR-GFP cells, provided by RG Bristow, were used to measure homologous recombination similarly as described above (Chan et al, [2008]).
For orientation: In a reporter assay the amount or activity of a reporter protein is the signal.

Turning to “diimidazo[4,5-d:4′,5′-f]-[1,3]diazepine [RK-33]”, in series [1], the “synergy of RK-33 + cisplatin” value is “did not observe significant synergy” and the “synergy of RK-33 + paclitaxel” value is reported as “did not observe significant synergy”. In addition, the cell cycle effect result in series [2] was “G1 arrest”. Further, in series [3], the “reduction of Axin-2 mRNA expression” value stood at 1.8 fold and the “reduction of Cyclin D1 mRNA expression” value is listed as 2.4 fold. The “accumulation in organs (biodistribution)” value in series [4] was “able to accumulate at therapeutic dose in various organs”. The “reduction of NHEJ” value in series [5] was determined as 38%.

For the origin of these results see paper PMC4492822 (EMBO Molecular Medicine, 2015).
